Results as given in PubChem BioAssay AID2060893 (Molecular Pharmacology Branch, DTP, NCI, 2025).
“And” between values parts separate entries of the source, which are not always exact repeats. Identical values can stand only once.

System: K86415-001-R-J1-PDC complex spheroids, viability
Test: Anticancer human tumor K86415-001-R-J1-PDC patient-derived lung adenocarcinoma cell line growth inhibition [RAS]
Conditions: for viability, T/C: stronger effect = lower value
Source text: RAS pathway inhibitors in Combinations in Complex Spheroids
A high-throughput screen of multi-cell type tumor spheroids was designed to identify active combinations of RAS pathway inhibitors and targeted small molecules. Complex spheroids include a stromal component modeled by human endothelial cells (HUVEC) and fibroblasts modeled by human mesenchymal stem cells (MSCs). The concentration ranges selected for each drug and investigational agent were based upon clinically achievable concentrations if the clinical Cmax of the agent was known.
Compounds. The drugs and investigational agents: abemaciclib (NSC768073), cobimetinib (NSC768068), divarasib (GDC6063, NSC841802), docetaxel (NSC628503), GDC-1971 (RLY-1971, NSC841576), gemcitabine (NSC613327), inavolisib (NSC800729), ipatasertib (NSC767898), KB-0742 (NSC834161), MRTX-1133 (NSC836407), osimertinib (NSC779217), RMC-4630 (NSC839698), RMC-6236 (NSC851965), RMC-6291 (NSC852671), Ro-3306 (NSC812927), sapanisertib (NSC764658), SN-38 (NSC673596), staurosporine (NSC755774), SY5609 (NSC837396), and tovorafenib (DAY101, NSC766906), were obtained from the National Cancer Institute (NCI) Developmental Therapeutics Program Chemical Repository. The FDA-approved anticancer drug set is available from the NCI Developmental Therapeutics Program. […] The stock solutions were prepared in dimethyl sulfoxide (DMSO, Sigma-Aldrich, St. Louis, MO, cat. D2650) at 800-fold the tested concentration and stored at -70 degrees C prior to their use. All drugs and investigational agents were tested over a range starting from a high concentration at or near the clinical Cmax and decreasing in half-log increments. If the clinical Cmax for an agent had not been determined, the highest concentration tested was 10 microM.
Cell Culture. All cells were maintained in an incubator at 37 degrees C and 5% CO2 with 95% humidity. The PDC lines were cultured according to standard operating procedures established by the NCI PDMR. All PDCs were thawed and cultured in Matrigel-coated flasks prepared with a working solution of 1X Ham's F-12 nutrient mix, without supplementation (Invitrogen, Waltham, MA, cat. 11765054), 100 U/mL penicillin-streptomycin (Invitrogen, cat. 15140122), and 2.5% Matrigel (Corning Inc., Corning, NY, cat. 354248) for the first three passages. The 362531-283-R-J2-PDC and 782815-120-R-J1-PDC lines were cultured in 6C/Colon 1B media, which includes advanced DMEM/F-12 (Thermo Fisher Scientific, cat. 12634028), 10 mM HEPES (Thermo Fisher Scientific, cat. 15630080), 1X GlutaMAX supplement (Thermo Fisher Scientific, cat. 35050061), 0.1 mg/mL primocin (InvivoGen, San Diego, CA, cat. ant-pm-2), 10% defined fetal bovine serum, heat inactivated (HyClone Laboratories Inc., Logan, UT, cat. SH30070.03HI), 50% L-WRN conditioned media (ATCC, cat. CRL-3276), 1.25 mM N-Acetyl-L-cysteine (Sigma-Aldrich, cat. A9165), 10 mM nicotinamide (Sigma-Aldrich, cat. N0636), 1X B-27 supplement (Thermo Fisher Scientific, cat. 17504044), 1X N-2 supplement (Thermo Fisher Scientific, cat. 17502048), 50 ng/mL human EGF (Thermo Fisher Scientific, cat. PHG0311), and 10 microM Y-27632 dihydrochloride (Tocris Bioscience, cat. 1254). The K12877-001-R-J1-PDC line was cultured in 6I media, which includes all 6C/Colon 1B media plus 10 ng/mL human FGF-10 (PeproTech, cat. 100-26), 1 ng/mL human FGF-2 (PeproTech, cat. 100-18B), 1 µM prostaglandin E2 (Tocris Bioscience, cat. 2296), […] hydrocortisone (Sigma-Aldrich, cat. H4001), and […] bovine insulin (Sigma-Aldrich, cat. I6634). The K86415-001-R-J1-PDC line was cultured in 6D media, which includes all 6C/Colon 1B media components minus the L-WRN conditioned media. The 485176-168-R4-J1-PDC was cultured in PANC media, which includes all 6C/Colon 1B media plus 100 ng/mL human FGF-10 (PeproTech, cat. 100-26), 500 nM SB-431542 (Selleckchem, cat. S1067), and 10 nM gastrin (Tocris Bioscience, cat. 3006). […]

[1] = compound alone, run of 07/15/2024
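Further: spheroids exposed to agents for seven days before readout.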

SMILES	viability, T/C (compound 0.0316 µM)	viability, T/C (compound 0.1 µM)	viability, T/C (compound 0.316 µM)	viability, T/C (compound 1 µM)	viability, T/C (compound 3.16 µM)	viability, T/C (compound 10 µM)	IC50 [1]	viability, T/C (compound 0.00316 µM)	viability, T/C (compound 0.01 µM)	IC50 (curve of compound)	viability, T/C (compound 0.000316 µM)	viability, T/C (compound 0.001 µM)	viability, T/C (compound 0.000949 µM)	viability, T/C (compound 0.003 µM)	viability, T/C (compound 0.00949 µM)	viability, T/C (compound 0.03 µM)	viability, T/C (compound 0.0949 µM)	viability, T/C (compound 0.3 µM)	IC50 (compound alone, run of 07/09/2024)
C#Cc1c(F)ccc2cc(O)cc(-c3ncc4c(N5CC6CCC(C5)N6)nc(OCC56CCCN5CC(F)C6)nc4c3F)c12 (configuration not stated)	101% [middle of 8 runs]	106% [middle of 8 runs]	88.2% [middle of 8 runs]	65.2% [middle of 8 runs]	38.2% [middle of 8 runs]	17.8% [middle of 8 runs]	1.81 µM [middle of 7 runs]												
C=CC(=O)N1CCN(c2nc(OCC3CCCN3C)nc3c(F)c(-c4nc(N)cc(C)c4C(F)(F)F)c(Cl)cc23)C(C)C1 (configuration not stated)	11.5% [middle of 12 runs]	9.89% [middle of 12 runs]	10.8% [middle of 12 runs]	10.7% [middle of 11 runs]			< 0.00316 µM	18.3% [middle of 12 runs]	13.4% [middle of 12 runs]	< 0.00316 µM									
C=CC(=O)Nc1cc(Nc2nccc(-c3cn(C)c4ccccc34)n2)c(OC)cc1N(C)CCN(C)C	101% [middle of 4 runs]	85.1% (2×) and 93.4% and 76.6%	67.2% [middle of 4 runs]	40.9% [middle of 4 runs]				105% [middle of 4 runs]	98.8% [middle of 4 runs]	659 nM [middle of 4 runs]									
CC(C)NCC(C(=O)N1CCN(c2ncnc3c2C(C)CC3O)CC1)c1ccc(Cl)cc1 (configuration not stated)	109% [middle of 4 runs]		97.9% [middle of 4 runs]	92.2% [middle of 4 runs]	65% [middle of 4 runs]	49.1% [middle of 4 runs]													
CC(C)n1nc(-c2ccc3oc(N)nc3c2)c2c(N)ncnc21	64.5% [middle of 4 runs]	32.2% [middle of 4 runs]						104% [middle of 4 runs]	96.1% [middle of 4 runs]	52.6 nM [middle of 4 runs]	108% [middle of 4 runs]	104% [middle of 4 runs]							
CC(Nc1ccc2c(c1)OCCn1cc(N3C(=O)OCC3C(F)F)nc1-2)C(N)=O (configuration not stated)	94.1% [middle of 4 runs]	86% [middle of 4 runs]	71.7% [middle of 4 runs]	54.5% [middle of 4 runs]	40.5% [middle of 4 runs]	29.4% [middle of 4 runs]				1.48 µM [middle of 4 runs]									
CC1(C)CCC(Nc2ncc(C(F)(F)F)c(-c3c[nH]c4c(P(C)(C)=O)c(C#N)ccc34)n2)CN1 (configuration not stated)										> 0.3 µM			110% and 123% (2×) and 109%	120% [middle of 4 runs]	75.7% [middle of 4 runs]	58.1% [middle of 4 runs]	60.8% [middle of 4 runs]	60.1% [middle of 4 runs]	
CC1(O)CCCC1n1c(=O)c(C(F)F)cc2cnc(NC3CCN(S(C)(=O)=O)CC3)nc21 (configuration not stated)	83.8% and 84.3% and 80.5% (2×)	87.1% [middle of 4 runs]	65.7% [middle of 4 runs]	72% (2×) and 75% and 80.8%		10.4% [middle of 4 runs]				5.04 µM [middle of 4 runs]									
CCN1CCN(Cc2ccc(Nc3ncc(F)c(-c4cc(F)c5nc(C)n(C(C)C)c5c4)n3)nc2)CC1	78.5% [middle of 4 runs]	71.3% [middle of 4 runs]	70.2% [middle of 4 runs]	71.4% [middle of 4 runs]				97.9% [middle of 4 runs]	90.2% [middle of 4 runs]	> 1 µM									
CCc1c2c(nc3ccc(O)cc13)-c1cc3c(c(=O)n1C2)COC(=O)[C@]3(O)CC										2.52 nM [middle of 4 runs]			102% (2×) and 97.3% and 88.2%	38.8% [middle of 4 runs]	23.2% [middle of 4 runs]	17.6% [middle of 4 runs]	13.3% [middle of 4 runs]	5.27% [middle of 4 runs]	
CCn1c(-c2cc(N3CCN(C)CC3)cnc2C(C)OC)c2c3cc(ccc31)-c1csc(n1)CC(NC(=O)C1CC1C)C(=O)N1CCCC(N1)C(=O)OCC(C)(C)C2 (configuration not stated)													50.3% [middle of 8 runs]	22.4% [middle of 8 runs]	10.2% [middle of 8 runs]	6.3% [middle of 8 runs]	3.96% [middle of 8 runs]	3.36% [middle of 8 runs]	
CCn1c(-c2cccnc2C(C)OC)c2c3cc(ccc31)N1CCOC(CC(NC(=O)C(C(C)C)N(C)C(=O)C3(F)CCN(C(=O)C#CC(C)(C)N(C)C)CC3)C(=O)N3CCCC(N3)C(=O)OCC(C)(C)C2)C1 (configuration not stated)													41.9% [middle of 8 runs]	13.8% [middle of 8 runs]	11.6% [middle of 7 runs]	12.7% [middle of 8 runs]	14.9% [middle of 8 runs]	14% [middle of 8 runs]	< 0.000949 µM
C[C@@H](NC(=O)c1ncnc(N)c1Cl)c1ncc(C(=O)Nc2cc(C(F)(F)F)c(Cl)cn2)s1	113% [middle of 4 runs]	113% [middle of 4 runs]	97.1% and 109% (2×) and 92.8%	87.8% [middle of 4 runs]	77.2% [middle of 4 runs]	64.7% [middle of 4 runs]				> 10 µM									
Nc1ccn(C2OC(CO)C(O)C2(F)F)c(=O)n1 (configuration not stated)	78.7% [middle of 4 runs]	61.3% [middle of 4 runs]	31.2% [middle of 4 runs]	22.3% [middle of 4 runs]				106% [middle of 4 runs]	97.5% [middle of 4 runs]	136 nM [middle of 4 runs]									
O=C(c1ccc(F)c(F)c1Nc1ccc(I)cc1F)N1CC(O)([C@@H]2CCCCN2)C1	59% [middle of 4 runs]	46% [middle of 4 runs]	22.4% [middle of 4 runs]	8.88% [middle of 4 runs]				103% [middle of 4 runs]	90% [middle of 4 runs]	68 nM [middle of 4 runs]									
